Source: patent publication US20090298793A1, “Acylgycerophospholipids for treating symptoms concomitant with cancer” (KTB TUMORFORSCHUNGSGESELLSCHAFT MBH, priority 2005, published 2009)

Legend:
tumor cells = settings: Nagami et al., Bioorganic & Medicinal Chemistry Letters 16: 782-785 (2006); cited from earlier work
[1] = system: human kidney cell carcinoma RXF 486; assay: Course of weight of naked mice bearing cachexia-inducing human kidney cell carcinoma RXF 486; assay type: in vivo; settings: 33 mg/kg DPPC p.o., days 0-4, 7-11, 14, 17, 18; liposomal dispersion in saline; n=3; p <0.001
Description: Tumors from the human kidney cell carcinoma RXF 486 have a string cachexia-inducing effect.
Female athymic BALB/c nude mice (nu/nu) (Charles River, Frederick, Md.) at the age of 8 to 10 weeks were employed. […] They were allowed water and rodent food (Altromin, Lage, Germany) ad libitum.
Fragments of 3-5 mm (in diameter) of the human kidney cell carcinoma RXF 486 were subcutaneously grafted between the animals' front and rear flanks. The therapy experiments were begun when the tumors had reached a size of 30-40 mm^3.
For the therapy, synthetic PL (dipalmitoylphosphatidylcholine, DPPC; Sygena, Liestal, Switzerland) was employed. It was dispersed in 0.9% (w/v) saline in a concentration of 33 mg/ml (ultrasonic dispersion in 50 ml Falcon tube) to provide a heterogeneous liposomal dispersion. For the oral administration (p.o.), the dispersion was adjusted to 3.3 mg/ml with saline.
On experiment days 0-4, 7-11, 14, 17 and 18, the animals were treated with 33 mg each per kg of body weight of DPPC p.o. by a stomach tube (application volume: 10 ml/kg). The control animals only obtained saline. The weight of the animals was determined on days 0, 2, 4, 7, 9, 11, 14, 18, 21, 25, 26 and 29 and is shown in FIG. 1 in % of the weight on day 0.

SMILES | apoptosis and necrosis in tumor cells (tumor cells) | weight loss as compared to an untreated control group [1]
CCCCCCCCCCCCCCCC(=O)OC[C@H](COP(=O)([O-])OCC[N+](C)(C)C)OC(=O)CCCCCCCCCCCCCCC [DPPC, dipalmitoylphosphatidylcholine] | does not show such an effect | virtually stopped
CCCCCCCCCCCCCC(=O)OC[C@H](COP(=O)([O-])OCC[N+](C)(C)C)OC(=O)CCCCCCCCCCCCC [dimyristoyl-PC, reference compound] | produces apoptosis and necrosis | 
